A word on the IC50: it is the concentration needed to halve the response being measured.

SMILES strings stand for the structures.

The target in this test is T1, human PCaR (parathyroid Calcium receptor) (Homo sapiens, UniProt P41180).
T1 construct: expressed in transfected cells; host or cells: CCL39 fibroblasts (stably transfected)
T1 sequence (P41180 20-1078): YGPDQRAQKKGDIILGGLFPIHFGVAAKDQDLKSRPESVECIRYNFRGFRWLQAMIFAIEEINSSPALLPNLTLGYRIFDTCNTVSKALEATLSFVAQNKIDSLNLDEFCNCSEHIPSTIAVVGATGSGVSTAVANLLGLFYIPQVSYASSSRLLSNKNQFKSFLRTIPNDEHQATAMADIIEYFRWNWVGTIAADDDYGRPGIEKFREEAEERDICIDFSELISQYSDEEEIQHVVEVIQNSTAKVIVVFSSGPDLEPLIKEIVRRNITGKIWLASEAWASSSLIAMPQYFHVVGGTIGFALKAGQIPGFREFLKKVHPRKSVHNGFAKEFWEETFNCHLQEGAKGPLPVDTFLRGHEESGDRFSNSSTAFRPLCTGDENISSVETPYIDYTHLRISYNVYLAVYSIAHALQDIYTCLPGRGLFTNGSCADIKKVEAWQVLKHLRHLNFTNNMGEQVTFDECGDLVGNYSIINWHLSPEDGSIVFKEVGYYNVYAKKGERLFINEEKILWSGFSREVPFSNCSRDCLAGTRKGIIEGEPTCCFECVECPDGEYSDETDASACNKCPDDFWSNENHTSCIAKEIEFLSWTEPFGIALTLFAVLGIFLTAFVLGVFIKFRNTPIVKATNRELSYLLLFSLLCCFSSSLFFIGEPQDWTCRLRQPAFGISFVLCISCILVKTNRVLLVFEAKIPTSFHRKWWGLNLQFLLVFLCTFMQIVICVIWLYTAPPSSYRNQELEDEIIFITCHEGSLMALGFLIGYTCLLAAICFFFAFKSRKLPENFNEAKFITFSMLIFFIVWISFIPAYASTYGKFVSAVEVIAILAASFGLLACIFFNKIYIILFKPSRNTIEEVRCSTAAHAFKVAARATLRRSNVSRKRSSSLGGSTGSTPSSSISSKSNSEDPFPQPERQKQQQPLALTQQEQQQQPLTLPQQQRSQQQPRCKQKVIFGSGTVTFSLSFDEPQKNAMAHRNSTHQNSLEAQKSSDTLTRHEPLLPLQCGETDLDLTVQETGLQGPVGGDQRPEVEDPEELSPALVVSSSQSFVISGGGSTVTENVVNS
The test can be described thus: Intracellular free calcium assay: inhibition of calcium transients stimulated by extracellular calcium (antagonism at PCaR). The test is classed as cell-based. The note with it: CCL39 fibroblasts stably transfected with human PCaR; Fluo-3 AM; stimulated with calcium (2.5 mM final). As for the experimental part: A suitable and well validated assay to measure the anabolic effect on bone formation is the assay to detect intracellular free calcium, i.e. the method to determine antagonism at the parathyroid Calcium receptor (PCaR) consists in measuring the inhibition of intracellular calcium transients stimulated by extracellular calcium:
CCL39 fibroblasts stably transfected with human PCaR are seeded at 40'000 cells/well into 96-well Viewplates and incubated for 24 hours. Medium is then removed and replaced with fresh medium containing 2 μM Fluo-3 AM (Molecular Probes, Leiden, The Netherlands), In routine experiments, cells are incubated at 37° C., 5% CO2 for 1 h. Afterwards, plates are washed twice with mHBS and wells are refilled with 100 μl mHBS containing the test compounds. Incubation is continued at room temperature for 15 minutes. To record changes of intracellular free calcium, plates are transferred to fluorescence-imaging plate reader (Molecular Devices, Sunnyvale, Calif., USA). A baseline consisting in 5 measurements of 0.4 seconds each (laser excitation 488 nm) is recorded. Cells are then stimulated with calcium (2.5 mM final), and fluorescence changes recorded over a period of 3 minutes.
In the case of `C#CCOc1ccc2nc(-c3nc4ccc(Br)cc4[nH]3)nc(-c3ccc(C(C)C)cc3)c2c1` [Example 19, 2-(6-Bromo-1H-benzoimidazol-2-yl)-4-(4-isopropyl-phenyl)-6-prop-2-ynyloxy-quinazoline], the IC50 worked out at 880 pM.

For `C#CCOc1ccc2nc(-c3nc4ccc(Cl)cc4[nH]3)nc(-c3ccc(C(C)C)cc3)c2c1` [Example 16, 2-(6-Chloro-1H-benzoimidazol-2-yl)-4-(4-isopropyl-phenyl)-6-prop-2-ynyloxy-quinazoline], the IC50 came out at 530 pM.

As for `C#CCOc1ccc2nc(-c3nc4cccc(C(C)=O)c4[nH]3)nc(-c3ccc(C(C)C)cc3)c2c1` [Example 26, 1-{2-[4-(4-Isopropyl-phenyl)-6-prop-2-ynyloxy-quinazolin-2-yl]-3H-benzoimidazol-4-yl}-ethanone], the IC50 was 590 pM.

`C#CCOc1ccc2nc(-c3nc4cc(C(C)=O)ccc4n3C)nc(-c3ccc(C(C)C)cc3)c2c1` [Example 24, 1-{2-[4-(4-Isopropyl-phenyl)-6-prop-2-ynyloxy-quinazolin-2-yl]-1-methyl-1H-benzoimidazol-5-yl}ethanone]: the IC50 was 1000 pM.

In the case of `C#CCOc1ccc2nc(-c3nc4ccc(C(=O)OCC)cc4n3C)nc(-c3ccc(C(C)C)cc3)c2c1` [Example 36, 2-[4-(4-Isopropyl-phenyl)-6-prop-2-ynyloxy-quinazolin-2-yl]-3-methyl-3H-benzoimidazole-5-carboxylic acid ethyl ester], the IC50 stood at 650 pM.

Consider `C#CCOc1ccc2nc(-c3nc4cc(C(=O)OCC)ccc4n3C)nc(-c3ccc(C(C)C)cc3)c2c1` [Example 23, 2-[4-(4-Isopropyl-phenyl)-6-prop-2-ynyloxy-quinazolin-2-yl]-1-methyl-1H-benzoimidazole-5-carboxylic acid ethyl ester], for which the IC50 was determined as 400 pM.

For `C#CCOc1ccc2nc(-c3nc4ccc(C(=O)c5ccccc5)cc4[nH]3)nc(-c3ccc(C(C)C)cc3)c2c1` [Example 18, {2-[4-(4-isopropyl-phenyl)-6-prop-2-ynyloxy-quinazolin-2-yl]-3H-benzoimidazol-5-yl}phenyl-methanone], the IC50 came out at 680 pM.

Take `C#CCOc1ccc2nc(-c3nc4ccc(F)cc4[nH]3)nc(-c3ccc(C(C)C)cc3)c2c1` [Example 20, 2-(6-Fluoro-1H-benzoimidazol-2-yl)-4-(4-isopropyl-phenyl)-6-prop-2-ynyloxy-quinazoline]: the IC50 was 1600 pM.

Regarding `C#CCOc1ccc2nc(-c3nc4ccc(C(=O)OCC)cc4[nH]3)nc(-c3ccc(C(C)C)cc3)c2c1` [Example 17, 2-[4-(4-Isopropyl-phenyl)-6-prop-2-ynyloxy-quinazolin-2-yl]-3H-benzoimidazole-5-carboxylic acid ethyl ester], the IC50 came to 740 pM.

As to `C#CCOc1ccc2nc(-c3nc4ccc(C#N)cc4[nH]3)nc(-c3ccc(C(C)C)cc3)c2c1` [Example 3, 2-[4-(4-Isopropyl-phenyl)-6-prop-2-ynyloxy-quinazolin-2-yl]-3H-benzoimidazole-5-carbonitrile], the IC50 is 930 pM.

Consider `C#CCOc1ccc2nc(-c3nc4cc(C(F)(F)F)ccc4n3C)nc(-c3ccc(C(C)C)cc3)c2c1` [Example 22, 4-(4-Isopropyl-phenyl)-2-(1-methyl-5-trifluoromethyl-1H-benzoimidazol-2-yl)-6-prop-2-ynyloxy-quinazoline], for which the IC50 is 630 pM.

As for `C#CCOc1ccc2nc(-c3nc4cc(C(=O)CCC)c(C)cc4n3C)nc(-c3ccc(C(C)C)cc3)c2c1` [Example 1, 1-{2-[4-(4-Isopropyl-phenyl)-6-prop-2-ynyloxy-quinazolin-2-yl]-1,6-dimethyl-1H-benzoimidazol-5-yl}-butan-1-one], the IC50 stood at 260 pM.

Turning to `C#CCOc1ccc2nc(-c3nc4cc(F)ccc4n3C)nc(-c3ccc(C(C)C)cc3)c2c1` [Example 5, 2-(5-Fluoro-1-methyl-1H-benzoimidazol-2-yl)-4-(4-isopropyl-phenyl)-6-prop-2-ynyloxy-quinazoline], the IC50 was 1100 pM.

Turning to `C#CCOc1ccc2nc(-c3nc4cc(OC)ccc4n3C)nc(-c3ccc(C(C)C)cc3)c2c1` [Example 6, 4-(4-Isopropyl-phenyl)-2-(5-methoxy-1-methyl-1H-benzoimidazol-2-yl)-6-prop-2-ynyloxy-quinazoline], the IC50 is 700 pM.

For the molecule `C#CCOc1ccc2nc(-c3nc4cc(F)c(Cl)cc4[nH]3)nc(-c3ccc(C(C)C)cc3)c2c1` [Example 21, 2-(6-Chloro-5-fluoro-1H-benzoimidazol-2-yl)-4-(4-isopropyl-phenyl)-6-prop-2-ynyloxy-quinazoline], the half-maximal inhibitory concentration (IC50) stood at 1400 pM.

Turning to `C#CCOc1ccc2nc(-c3nc4ccc(C(F)(F)F)cc4[nH]3)nc(-c3ccc(C(C)C)cc3)c2c1` [Example 14, 4-(4-Isopropyl-phenyl)-6-prop-2-ynyloxy-2-(6-trifluoromethyl-1H-benzoimidazol-2-yl)-quinazoline], the IC50 is 950 pM.

As for `C#CCOc1ccc2nc(-c3nc4ccc(OC)cc4[nH]3)nc(-c3ccc(C(C)C)cc3)c2c1` [Example 15, 4-(4-Isopropyl-phenyl)-2-(6-methoxy-1H-benzoimidazol-2-yl)-6-prop-2-ynyloxy-quinazoline], the IC50 was determined as 960 pM.

As to `C#CCOc1ccc2nc(-c3nc4cc(F)c(F)cc4[nH]3)nc(-c3ccc(C(C)C)cc3)c2c1` [Example 25, 2-(5,6-Difluoro-1H-benzoimidazol-2-yl)-4-(4-isopropyl-phenyl)-6-prop-2-ynyloxy-quinazoline], the IC50 is 440 pM.

As for `C#CCOc1ccc2nc(-c3nc4ccccc4n3C)nc(-c3ccc(C(C)C)cc3)c2c1` [Example 8, 4-(4-Isopropyl-phenyl)-2-(1-methyl-1H-benzoimidazol-2-yl)-6-prop-2-ynyloxy-quinazoline], the IC50 is 1500 pM.

Source of the values: patent publication US20090074791A1, “Phenylisoquinoline and Phenylquinazoline Derivatives” (priority 2007, published 2009).
